Measured values taken from patent US12024507B2, “Compounds as GLP-1R agonists” (Terns Pharmaceuticals, Inc., priority 2021, dated 2024).

Assays:
Format in all cases: in vitro ADME
[1] = Metabolic stability in human hepatocytes; conditions: cryopreserved hepatocytes, 1×10^6 cells/mL; for CLint scaled at 1 μM: intrinsic clearance; for half-life at 1 μM: read-out: Human T1/2
Method: (§1) Test compounds were incubated in rat and human hepatocytes and stability was assessed from the substrate […] approach. Test compounds were dissolved in dimethyl sulfoxide (DMSO) to create a 10 mM Stock, and then further diluted to create a 1000×Working Stock of 1 mM with DMSO in 96-well plates for test compounds and the positive control (midazolam). Vials containing cryopreserved hepatocytes were removed from the liquid nitrogen tank and immediately immersed in a 37° C. water bath. The vials were shaken gently until the contents had thawed and were then immediately emptied into 48 mL of pre-warmed HT Medium in a 50 mL conical tube. Cells remaining in the vial were resuspended with 1.0 mL of pre-warmed HT Medium and added to the conical tube. The tube was capped and then gently inverted several times to resuspend the hepatocytes. The cell suspension was centrifuged at 50×g at room temperature for 5 minutes and the supernatant discarded. The cell pellet was loosened by gently swirling the centrifuge tube and was re-suspended in 4 mL of warm Dulbecco's Modified Eagle medium (DMEM). Cell density was determined by a cell counter by Nexcelom, and DMEM medium was added to obtain a target density of 1×10^6 cells/mL. The assay was carried out in 96-well microtiter plates. Test Compounds were incubated at 1 μM with 1×10^6 cells/mL hepatocytes in DMEM for 0, 30, 60, 120 and 240 minutes. The incubation was carried out with gentle shaking at 37° C. under a humid atmosphere of 95% air/5% CO2. The volume of the incubation mixture was 37 μL with a final 0.1% DMSO. At each of the time points, the incubation was stopped by adding 150 μL quenching solution (100% acetonitrile, 0.1% formic acid containing bucetin as an internal standard for positive ESI mode). Subsequently, the mixtures were vortexed for 20 min and centrifuged at 4,000 RPM at 10° C. The supernatant (80 μL) was transferred to a clean 96-well plate and analyzed by LC-MS/MS. Midazolam at 1 μM with a final 0.1% DMSO was included as a positive control to verify assay performance. The percent parent remaining, intrinsic and predicted hepatic clearance and t1/2 were calculated. All samples were analyzed by LC-MS/MS using an AB Sciex API 4000 instrument, coupled to a Shimadzu LC-20AD LC Pump system. Separation was achieved using a Waters Atlantis T3 dC18 reverse phase HPLC column (20 mm×2.1 mm) at a flow rate of 0.5 mL/min. The mobile phase consisted of 0.1% formic acid in water (solvent A) and 0.1% formic acid in 100% acetonitrile (solvent B). Elution conditions are detailed below.
(§2) The ion optics of each test compound were optimized for their declustering potential (DP), […] (CE), collision-cell exit potential (CXP) and used in a selected ion monitoring experiment in the positive ion mode. The peak area ratio of each test compound to internal standard was then evaluated for stability. The extent of metabolism was calculated based on the disappearance of the test compound, compared to its initial concentration. The initial rates of clearance of the test compound were calculated using the linear regression plot of semi-log % remaining of the compound versus time.
(§3) The predicted hepatic clearance (CLhep) was calculated using the well stirred method with the following formula with CLint(in vivo) normalized based on liver weight: CLint(in vivo)=CLint×Hepatocellularity×liver weight CLhep predicted=(CLint(in vivo)×Qliver)/(CLint(in vivo)+Qliver) Where Qliver ((ml/min/kg) is Liver Blood Flow
(§4) The relevant physiological parameters of liver weight, blood flow, and hepatocellularity for various species are listed below:
(§5) Results are presented in the Table B3 below for the intrinsic clearance (mL/min/kg) and half-life (t1/2).

[2] = Metabolic stability in rat hepatocytes; conditions: cryopreserved hepatocytes, 1×10^6 cells/mL; for CLint scaled at 1 μM: intrinsic clearance; for half-life at 1 μM: read-out: Rat T1/2
Method: as §1, §2, §3, §4, §5

[3] = Passive permeability and efflux ratio in Caco-2 cell monolayers; conditions: human, Caco-2, 5 μM, pH 7.4, 120 minutes; for Papp A→B at 120 min, 5 μM: apical to basolateral; for Papp B→A at 120 min, 5 μM: basolateral to apical
Method: Caco-2 cells (clone C2BBe1) were obtained from American Type Culture Collection (Manassas, VA). Cell monolayers were grown to confluence on collagen-coated, microporous membranes in 12-well assay plates. Details of the plates and their certification are shown below. The permeability assay buffer was Hanks' balanced salt solution containing 10 mM HEPES and 15 mM glucose at a pH of 7.4. The buffer in the receiver chamber also contained 1% bovine serum albumin. The dosing solution concentration was 5 μM of test article in the assay buffer. Cell monolayers were dosed on the apical side (A-to-B) or basolateral side (B-to-A) and incubated at 37° C. with 5% CO2 in a humidified incubator. Samples were taken from the donor and receiver chambers at 120 minutes. Each determination was performed in duplicate. The flux of lucifer yellow was also measured post-experimentally for each monolayer to ensure no damage was inflicted to the cell monolayers during the flux period. All samples were assayed by LC-MS/MS using electrospray ionization. The apparent permeability (Papp) and percent recovery were calculated as follows: Papp=(dCr/dt)×Vr/(A×CA) (1) Percent Recovery=100×((Vr×Cr^final)+(Vd×Cd^final))/(Vd×CN) (2), where, dCr/dt is the slope of the cumulative receiver concentration versus time in μM s^−1; Vr is the volume of the receiver compartment in cm^3; Vd is the volume of the donor compartment in cm^3; A is the area of the insert (1.13 cm^2 for 12-well); CA is the average of the nominal dosing concentration and the measured 120-minute donor concentration in μM; CN is the nominal concentration of the dosing solution in μM; Cr^final is the cumulative receiver concentration in μM at the end of the incubation period; Cd^final is the concentration of the donor in μM at the end of the incubation period. Efflux ratio (ER) is defined as Papp (B-to-A)/Papp (A-to-B).

Row | SMILES | CLint scaled at 1 μM [1] | half-life at 1 μM [1] | CLint scaled at 1 μM [2] | half-life at 1 μM [2] | Papp A→B at 120 min, 5 μM [3] | Papp B→A at 120 min, 5 μM [3]
1 | N#Cc1ccc(COc2cccc(C3CCN(Cc4nc5ccc(-c6nnn[nH]6)cc5n4C[C@@H]4CCO4)CC3)n2)c(F)c1 [Compound 8] | 7.99 ± 0.99 mL/min/kg | 5.02 ± 0.623 h | 46.5 ± 2.11 mL/min/kg | 1.19 ± 0.054 h | 1.8 ×10⁻⁶ cm/s | 18.8 ×10⁻⁶ cm/s
2 | N#Cc1ccc(COc2cccc(C3CCN(Cc4nc5ccc(-c6nc(=O)[nH]o6)cc5n4Cc4cncs4)CC3)n2)c(F)c1 [Compound 13, 3-fluoro-4-(((6-(1-((6-(3-oxo-2,3-dihydro-1,2,4-oxadiazol-5-yl)-1-(thiazol-5-ylmethyl)-1H-benzo[d]imidazol-2-yl)methyl)piperidin-4-yl)pyridin-2-yl)oxy)methyl)benzonitrile] | 35.8 ± 1.06 mL/min/kg | 1.12 ± 0.0332 h | 111 ± 2.29 mL/min/kg | 0.501 ± 0.0103 h | 46.9 ×10⁻⁶ cm/s | 51.1 ×10⁻⁶ cm/s
